Experimental data from patent EP4786464A1, “COMPOUND AS GLUTAMINE CYCLASE INHIBITOR” (Simcere Pharmaceutical Co., Ltd., priority 2023, dated 2025).

Legend:
human QPCT = target: T1, human QPCT (Homo sapiens, UniProt Q16769); assay: Inhibition of human QPCT enzyme activity (SensoLyte Green Glutaminyl Cyclase Activity Assay Kit); type: biochemical; details: fluorescence Ex/Em = 490 nm/520 nm
T1 construct: purchased Anaspec AS-72230
Experimental: (§1) The inhibition of human QPCT/QPCTL enzyme activity by the compounds was assessed using SensoLyte® Green Glutaminyl Cyclase Activity Assay Kit.
(§2) The working solutions of the test compounds were serially 6-fold diluted from an initial concentration of 200 µM to 7 concentration points in total. In the 75 µL reaction system, the initial working concentration of the test compound was 13.3 µM, and the final concentration of DMSO was 0.3%. 20 µL of prepared QPCT enzyme solution, 5 µL of test compound, and 25 µL of QPCT enzyme substrate were successively added to each well of a 384-well plate. The mixture was shaken on a microplate shaker for 1 min, centrifuged at 400 g for 1 min, and incubated at 37 °C for 30 min. Then, 25 µL of QPCT developer was added to each well, and the mixture was sufficiently mixed using a shaker for 1 min, centrifuged at 400 g for 1 min, and incubated at 37 °C for another 60 min. After the incubation was completed, the fluorescence values were read using a microplate reader, with parameter settings as follows: Ex/Em = 490 nm/520 nm. […] Curves were plotted using GraphPad Prism 9 software with the compound concentration (nM) as the abscissa and the enzyme activity inhibition rate (%) as the ordinate. Four-parameter fitting was performed, and the IC50 values for the inhibition of the QPCT enzyme activity by the compounds were calculated.

[1] = Metabolic stability in liver microsomes (human); type: in vitro ADME; details: pH 7.4; human liver microsomes 0.5 mg/mL, 1 µM compound, 1 mM NADPH; read-out: Half-life (t1/2, min) (human)
Experimental: (§3) The experimental procedures were as follows: 1. […] 2. Preparation of reaction system The reaction system was prepared as follows:
(§4) 3. The reaction system was pre-incubated in a 37 °C water bath for 10 min. 20 µL of 10 mM NADPH solution (NADPH was dissolved by 100 mM phosphate-buffered saline) was added to the reaction system with a final concentration of NADPH being 1 mM. 20 µL phosphate-buffered saline was used instead of the NADPH solution to serve as the negative control. The negative control was used to exclude the effect of chemical stability of the compound itself. 4. The reaction was initiated by adding 2 µL of 100 µM compound of the present disclosure and verapamil, the positive control compound, to the reaction system with a final concentration of the compound being 1 µM. 5.
(§5) All data were calculated using Microsoft Excel software. The peak area was obtained by extracting an ion chromatogram.

CYP2C9 = target: T2, CYP2C9 (Homo sapiens, UniProt P11712); assay: Inhibition of CYP2C9 enzyme activity in liver microsomes; type: in vitro ADME; details: substrate diclofenac, 15 min
T2 construct: 1 µL of 20 mg/mL liver microsome solution; from tissue; host or cells: liver microsomes
T2 sequence (P11712 whole entry): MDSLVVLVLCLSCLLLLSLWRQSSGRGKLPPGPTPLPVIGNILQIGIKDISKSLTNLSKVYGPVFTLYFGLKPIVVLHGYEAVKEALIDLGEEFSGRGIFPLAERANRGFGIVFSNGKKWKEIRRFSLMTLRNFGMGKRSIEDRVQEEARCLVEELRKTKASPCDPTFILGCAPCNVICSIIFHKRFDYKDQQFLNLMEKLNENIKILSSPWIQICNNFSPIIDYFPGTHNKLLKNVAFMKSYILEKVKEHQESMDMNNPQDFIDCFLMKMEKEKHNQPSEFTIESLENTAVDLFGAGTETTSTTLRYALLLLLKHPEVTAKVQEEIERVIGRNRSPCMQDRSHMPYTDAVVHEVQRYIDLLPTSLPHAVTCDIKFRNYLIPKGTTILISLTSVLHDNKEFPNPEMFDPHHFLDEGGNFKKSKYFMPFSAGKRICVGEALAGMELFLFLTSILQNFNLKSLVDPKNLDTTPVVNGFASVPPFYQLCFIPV

CYP2D6 = target: T3, CYP2D6 (Homo sapiens, UniProt P10635); assay: Inhibition of CYP2D6 enzyme activity in liver microsomes; type: in vitro ADME; details: substrate dextromethorphan, 15 min
T3 construct: 1 µL of 20 mg/mL liver microsome solution; from tissue; host or cells: liver microsomes
T3 sequence (P10635 whole entry): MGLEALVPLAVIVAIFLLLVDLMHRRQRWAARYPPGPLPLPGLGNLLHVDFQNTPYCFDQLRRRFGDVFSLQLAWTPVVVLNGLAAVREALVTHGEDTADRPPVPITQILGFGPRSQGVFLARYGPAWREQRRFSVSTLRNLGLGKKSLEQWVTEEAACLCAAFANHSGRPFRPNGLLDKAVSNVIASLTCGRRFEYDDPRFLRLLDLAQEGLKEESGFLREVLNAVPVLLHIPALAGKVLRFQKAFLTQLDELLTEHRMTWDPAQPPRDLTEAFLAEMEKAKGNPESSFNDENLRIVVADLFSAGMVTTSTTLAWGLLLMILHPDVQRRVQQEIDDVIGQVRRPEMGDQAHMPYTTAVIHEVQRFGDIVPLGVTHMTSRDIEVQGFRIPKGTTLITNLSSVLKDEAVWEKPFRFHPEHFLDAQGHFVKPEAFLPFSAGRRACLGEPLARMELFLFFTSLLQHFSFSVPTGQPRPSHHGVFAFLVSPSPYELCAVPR

CYP3A4 = target: T4, CYP3A4 (Homo sapiens, UniProt P08684); assay: Inhibition of CYP3A4 enzyme activity in liver microsomes; type: in vitro ADME; details: substrate midazolam, 15 min
T4 construct: 1 µL of 20 mg/mL liver microsome solution; from tissue; host or cells: liver microsomes
T4 sequence (P08684 whole entry): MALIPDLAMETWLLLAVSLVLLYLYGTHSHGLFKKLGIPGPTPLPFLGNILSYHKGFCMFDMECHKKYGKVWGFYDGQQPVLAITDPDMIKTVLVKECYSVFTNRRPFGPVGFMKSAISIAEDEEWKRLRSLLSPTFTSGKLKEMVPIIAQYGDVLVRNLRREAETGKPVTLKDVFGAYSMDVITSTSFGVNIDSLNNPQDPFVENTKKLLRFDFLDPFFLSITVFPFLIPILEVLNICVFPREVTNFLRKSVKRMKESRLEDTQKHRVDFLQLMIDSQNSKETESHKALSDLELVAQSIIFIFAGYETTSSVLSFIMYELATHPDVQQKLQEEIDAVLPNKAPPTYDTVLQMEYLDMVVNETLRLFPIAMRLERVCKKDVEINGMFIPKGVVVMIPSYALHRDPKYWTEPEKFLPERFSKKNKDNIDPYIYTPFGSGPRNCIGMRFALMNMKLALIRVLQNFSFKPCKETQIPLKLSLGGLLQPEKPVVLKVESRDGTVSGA

human QPCTL = target: T5, human QPCTL (Homo sapiens, UniProt Q9NXS2); assay: Inhibition of human QPCTL enzyme activity (adjusted SensoLyte Green Glutaminyl Cyclase Activity Assay Kit); type: biochemical; details: human QPCTL enzyme (Sino Biological)
T5 construct: purchased Sino Biological NXS6-1
T5 sequence (Q9NXS2 whole entry): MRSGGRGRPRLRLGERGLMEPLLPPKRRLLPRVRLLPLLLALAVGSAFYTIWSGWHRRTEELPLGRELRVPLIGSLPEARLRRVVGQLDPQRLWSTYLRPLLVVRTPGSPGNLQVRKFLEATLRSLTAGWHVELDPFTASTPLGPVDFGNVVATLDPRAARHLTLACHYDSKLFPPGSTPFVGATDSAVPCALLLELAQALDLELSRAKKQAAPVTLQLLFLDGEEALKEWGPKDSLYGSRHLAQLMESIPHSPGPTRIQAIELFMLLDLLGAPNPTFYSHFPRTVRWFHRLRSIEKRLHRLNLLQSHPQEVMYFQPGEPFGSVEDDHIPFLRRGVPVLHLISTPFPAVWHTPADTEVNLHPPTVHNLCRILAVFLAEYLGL
Experimental: as §1
as §2, with “0.5 mM QPCT enzyme substrate was diluted to 5 µM with a buffer at a ratio of 1:100; 50 µg/mL QPCT enzyme was diluted to 125 ng/mL with a buffer and placed on ice for later use; QPCT developer was diluted with a buffer at a ratio of 1:250 and placed on ice for later use (the QPCT enzyme substrate, the QPCT enzyme, the buffer, and the QPCT developer were all from the kit). The working” for “The working”
The SensoLyte® Green Glutaminyl Cyclase Activity Assay Kit was appropriately adjusted by replacing the QPCT enzyme in it with human QPCTL enzyme (Sino Biological, Cat. No. NXS6-1) (the concentration of the working solution was kept unchanged) for determining the IC50 values for the inhibition of human QPCTL enzyme activity by compounds. […]

[2] = Metabolic stability in liver microsomes (mouse); type: in vitro ADME; details: pH 7.4; mouse liver microsomes 0.5 mg/mL, 1 µM compound, 1 mM NADPH; read-out: Half-life (t1/2, min) (mouse)
Experimental: as §3, §4, §5

T1 sequence (Q16769 29-361): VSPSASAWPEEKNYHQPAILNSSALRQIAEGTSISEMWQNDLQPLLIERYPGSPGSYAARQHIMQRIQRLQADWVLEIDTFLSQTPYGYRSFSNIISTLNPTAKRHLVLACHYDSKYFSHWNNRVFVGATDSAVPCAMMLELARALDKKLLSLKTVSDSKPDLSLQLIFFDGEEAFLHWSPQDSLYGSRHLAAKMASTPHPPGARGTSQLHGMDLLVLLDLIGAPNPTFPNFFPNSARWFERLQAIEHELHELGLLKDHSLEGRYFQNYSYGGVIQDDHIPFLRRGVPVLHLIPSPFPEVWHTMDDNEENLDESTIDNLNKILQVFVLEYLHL

Row | Compound | IC50 (human QPCT) [nM] | also measured
1 | CC12CC([C@H]3CC(=O)N3c3ccc4nc[nH]c4c3)(C1)C2 [Compound 9] | 37.3 | 
2 | O=C1C[C@H](C23CC(F)(C2)C3)N1c1ccc2[nH]cnc2c1 [Compound 2] | 170 | 
3 | O=C1C[C@H](C23CC(c4ccncc4)(C2)C3)N1c1ccc2[nH]cnc2c1 [Compound 5] | 8.5 | 
4 | O=C1C[C@H](C23CC(N4CCOCC4)(C2)C3)N1c1ccc2[nH]cnc2c1 [Compound 7] | 36.8 | half-life at 1 µM [1]: 316 min; IC50 (CYP2C9): > 50 µM; IC50 (CYP2D6): > 50 µM; IC50 (CYP3A4): > 50 µM; IC50 (human QPCTL): 25.1 nM; half-life at 1 µM [2]: 325 min
5 | O=C1C[C@H](C23CC(CF)(C2)C3)N1c1ccc2nc[nH]c2c1 [Compound 10] | 58.9 | 
6 | O=C1C[C@H](C23CC(c4ccc(F)cc4)(C2)C3)N1c1ccc2[nH]cnc2c1 [Compound 4] | 10.7 | IC50 (human QPCTL): 3.9 nM
7 | O=C1C[C@H](C23CC(Cl)(C2)C3)N1c1ccc2[nH]cnc2c1 [Compound 13] | 73.2 | 
8 | COC12CC([C@H]3CC(=O)N3c3ccc4[nH]cnc4c3)(C1)C2 [Compound 8] | 166 | 
9 | CCCOC12CC([C@H]3CC(=O)N3c3ccc4[nH]cnc4c3)(C1)C2 [Compound 3] | 52.4 | IC50 (human QPCTL): 6.5 nM
10 | N#Cc1ccc(C23CC([C@H]4CC(=O)N4c4ccc5[nH]cnc5c4)(C2)C3)cc1 [Compound 6] | 19.1 | 
11 | [2H][C@]1(C23CC(C2)C3)CC(=O)N1c1ccc2[nH]cnc2c1 [Compound 11] | 42.5 | 
